Source: patent US20110053964A1, “4-AMINOQUINAZOLINE DERIVATIVES AND METHODS OF USE THEREOF” (priority 2006, published 2011)

Columns and labels:
[1] = Pharmacokinetics in rats, intravenous; assay type: in vivo, Sprague-Dawley rats; conditions: rat, single intravenous bolus 2 mg/kg; for half-life compared to lapatinib: tosylate salt (FIGS. 2 and 3)
Protocol: Rats were anesthetized using pentobarbital (IP 40 mg/kg) prior to administration of compound. […] The rats were administered a single bolus 2 mg/kg dose of compound via jugular cannula, followed by a wash-out with saline. Blood samples (0.25 mL) were taken from the jugular at 5, 15 and 30 minutes and at 1, 2, 4, 6, 9, 12, and 24 hours post-dosing. Blood samples were centrifuged within 15 minutes of removal from the animal, centrifuged, and the plasma fraction removed and stored at −20° C. until analysis. Samples were analyzed by LC-MS.

[2] = Pharmacokinetics in rats, oral dosing; conditions: rat, oral dosing 20 mg/kg, tosylate salt; data not shown

Row | half-life ([1]; Sprague-Dawley, tosylate salt, plasma) | half life compared to lapatinib [2] | Structure (SMILES) | half-life compared to lapatinib [1]
1 | 1 ± 0.05 h |  | CS(=O)(=O)CCNCc1ccc(-c2ccc3ncnc(Nc4ccc(OCc5cccc(F)c5)c(Cl)c4)c3c2)o1.Cc1ccc(S(=O)(=O)O)cc1 [Lapatinib, [3-Chloro-4-(3-fluorobenzyloxy)phenyl](6-{5-[(2-methanesulfonylethylamino)-methyl]furan-2-yl}-quinazolin-4-yl)amine 4-toluenesulfonate salt, reference compound] | 
2 |  | longer half lives than lapatinib | Cc1ccc(S(=O)(=O)O)cc1.Cc1ccc(S(=O)(=O)O)cc1.[2H]C([2H])(CS(C)(=O)=O)NC([2H])([2H])c1ccc(-c2ccc3ncnc(Nc4ccc(OCc5cccc(F)c5)c(Cl)c4)c3c2)o1 [Compound 101, [3-Chloro-4-(3-fluorobenzyloxy)phenyl]-(6-{5-[(2-methanesulfonyl-1,1-d2-ethylamino)-d2-methyl]-furan-2-yl}-quinazolin-4-yl)amine di-tosylate] | significantly longer half-lives than lapatinib
3 |  | longer half lives than lapatinib | Cc1ccc(S(=O)(=O)O)cc1.Cc1ccc(S(=O)(=O)O)cc1.[2H]C([2H])(NC([2H])([2H])C([2H])([2H])S(=O)(=O)C([2H])([2H])[2H])c1ccc(-c2ccc3ncnc(Nc4ccc(OCc5cccc(F)c5)c(Cl)c4)c3c2)o1 [Compound 102, [3-Chloro-4-(3-fluoro-benzyloxy)-phenyl]-(6-{5-[(2-d3-methanesulfonyl-1,1,2,2-4-ethylamino)-d2-methyl]-furan-2-yl}-quinazolin-4-yl)amine di-tosylate] | significantly longer half-lives than lapatinib
